The record followed here is patent publication US7566453B2, “Methods for treating melanomas” (Chugai Seiyaku Kabushiki Kaisha, priority 1998, dated 2009).

Values joined by “and” are separate entries in the source; they are usually repeats but may differ in a detail not shown here. Identical values can stand only once.

For assay [1], the system named is KPMM2 cells. The procedure:
The effects of anti-human IL-6 receptor antibody on sensitivity of KPMM2 cells to chemotherapeutic agents used for treatment of myeloma such as adriamycin (ADR, manufactured by Kyowa Hakko), vincristine (VCR, manufactured by Sigma Chemical Co.), and melphalan (L-PAM, manufactured by Sigma Chemical Co.) were evaluated.
KPMM2 is a multiple myeloma cell line derived from the ascites of a human patient with myeloma (see Japanese Unexamined Patent Publication (Kokai) No. 7-236475). […] The growth activity of the cell was evaluated by incorporation of ^3H-labeled thymidine (manufactured by Amersham) into the cell.
The KPMM2 cells that had been maintained were washed thoroughly with a fresh medium (RPMI1640 medium supplemented with 20% FBS), and then were adjusted to 4×10^5/ml, which was dispensed in 50 μl aliquots in a 96-well flat-bottomed microtiter plate (manufactured by Falcon). Furthermore, a medium containing a recombinant human IL-6 (Asagoe, Y. et al., Bio/Technology (1988) 6, 806-809), anti-human IL-6 receptor antibody hPM-1 (see the above reference example 1 or International Patent Application WO 92-15759), and the above chemotherapeutic agents or a fresh medium as control were added to make 200 μl in each well.
The plate was incubated at 37° C. for 4 days under the humidified condition in the presence of 5% CO2. At four hours before the end of incubation, 10 μl of ^3H-labeled thymidine solution (100 μCi/ml) was added to each well, and then incubated for more 4 hours. At the end of incubation, the cells were collected onto the glass filter (manufactured by Printed Filtermat A, WALLAC) using a harvester (Micro 96 Harvester, manufactured by SKATRON Instruments). The radioactivity incorporated into the cells was measured by a microbeta (1450 MicroBeta, manufactured by WALLAC).
The activity of growth inhibition on KPMM2 was expressed using the effect by a chemotherapeutic agent alone as the control. Using the incorporation of ^3H-labeled thymidine into the cell for each experimental group in which a each concentration of a chemotherapeutic agent was added as 100, the amount of ^3H-labeled thymidine incorporated into the cell in an experimental group in which anti-human IL-6 receptor antibody was simultaneously added was compared as an index.

Assay [2] deals with KPMM2 cells. The experiment in a line: Human myeloma cell-implanted SCID mouse system, dose dependency of antibody (Example 3): survival, serum M protein. The format is in vivo. The settings on record: for Life-elongation ratio (%): vs drug non-administration group; for Survival period: mean±standard error. The procedure: For evaluation of antitumor effects, a xenograft model animal that was produced by implanting KPMM2 cells via the tail vein was used as in Working example 2. Thus, single-cell suspensions which were prepared by passing through a mesh KPMM2 cells that were minced after having been maintained in vivo were implanted at 0.2 ml per mouse via the tail vein (6×10^6 cells per mouse). The day when the cells were implanted was set at day 0.
They were given to mice at 0.1 ml per 10 g body weight of mouse via the tail vein on day 14 to create the 50, 10, 2, and 0.4 mg/kg administration groups.
Melphalan (L-PAM, manufactured by Sigma Chemical Co.) was used as a suspension of 0.1 mg/ml in 0.2% CMC solution in water. This was given orally at 0.1 ml per 10 g body weight of mouse (1 mg/kg weight) for 5 consecutive days starting on day 7.
The experiment was carried out on the following 10 groups: (A) the melphalan and the antibody non-administration group; (B) the melphalan single-drug administration group; (C) the each dose of antibody single-drug administration group , 4 groups (50, 10, 2, 0.4 mg/kg weight); and, (D) the melphalan and the each dose of antibody combined administration group, 4 groups (50, 10, 2, 0.4 mg/kg weight). The non-administration group included 12 mice per group, the melphalan administration group 6 mice per group, whereas each of the other groups included 7 mice. Furthermore, mice of the same lineage and purchased on the same day were raised without implanting a tumor, and the animals were used as negative control for M protein detection. The amount of M protein was calculated as described in Example 2.
Indices of the drug efficacy included the survival period, and the amount of M proteins on day 30, day 35, and day 42. For analysis of the survival period, a generalized Wilcoxon's test (SPSS for Windows ver. 6, SPSS inc.) was used. A significance level of 5% or lower was considered to be significant. For analysis of the amount of M protein in the serum, the ANOVA (Analysis of variance, SPSS for windows ver. 6, SPSS inc.) was first conducted. After confirming significance, Bonferroni method (SPSS for windows ver. 6, SPSS inc.) was used, and a significance level of 5% or lower was considered to be significant.

Turning to `NC(Cc1ccc(N(CCCl)CCCl)cc1)C(=O)O` (centres unmarked) [melphalan], in the assay on KPMM2 cells [1] (fixed concentration of anti-human IL-6 receptor antibody, 0.1 or 1 ng/ml IL-6 (FIG. 1 to 6)), the “relationship of growth index with the concentration of chemotherapeutic agent” value is on record as “decreased with the increase in melphalan concentration”. The “Life-elongation ratio (%)” value in the assay with KPMM2 cells [2] (melphalan 1 mg/kg orally 5 days from day 7, no antibody) is given as 142%. For the same compound, the Survival period in the assay with KPMM2 cells [2] (melphalan 1 mg/kg orally, 5 consecutive days from day 7, no antibody) was found to be 58.2 ± 1.8. For the same compound, the “Life-elongation ratio (%), value in parentheses” value in the assay with KPMM2 cells [2] (melphalan 1 mg/kg, no antibody, melphalan single-drug administration group as control) is recorded as 100%. For the same compound, in the assay with KPMM2 cells [2] (melphalan alone, 1 mg/kg), the “life elongation effect (survival period)” value is given as “significant life elongation effect”. In the assay on KPMM2 cells [2] (melphalan single-drug administration, 1 mg/kg (FIG. 11)), the “amount of M protein in the serum on day 30” value was “significantly inhibited”.
As for “hPM-1: reshaped human PM-1 antibody: CDRs of mouse anti-IL-6 receptor antibody PM-1 grafted to human antibody, produced in CHO cells”, the “growth index (3H-thymidine incorporation, chemotherapeutic agent alone = 100)” value with KPMM2 cells [1] was 33.9 and 28.4. Moreover, the “life elongation effect (survival period)” value in the assay on KPMM2 cells [2] (antibody single-drug administration, 50, 10, 2, 0.4 mg/kg) is on record as “none of the doses in the antibody single-drug administration group gave a significant life elongation effect”. Further, the “amount of M protein in the serum on day 30” value with KPMM2 cells [2] (antibody single-drug administration, 50, 10, 2, 0.4 mg/kg on day 14 (FIG. 11)) was “none of the doses significantly inhibited the amount of M protein”. Moreover, the “Life-elongation ratio (%)” value was 98% with KPMM2 cells [2] (hPM-1 0.4 mg/kg on day 14, CMC control); 101% in the assay on KPMM2 cells [2] (hPM-1 2 mg/kg on day 14, CMC control); 99% with KPMM2 cells [2] (hPM-1 10 mg/kg on day 14, CMC control); 101% with KPMM2 cells [2] (hPM-1 50 mg/kg on day 14, CMC control). The Survival period in the assay on KPMM2 cells [2] (hPM-1 0.4 mg/kg via the tail vein on day 14, CMC control) was 40.3 ± 1.2; with KPMM2 cells [2] (hPM-1 2 mg/kg via the tail vein on day 14, CMC control), 41.4 ± 1.3; in the assay with KPMM2 cells [2] (hPM-1 10 mg/kg via the tail vein on day 14, CMC control), 40.4 ± 1.7; with KPMM2 cells [2] (hPM-1 50 mg/kg via the tail vein on day 14, CMC control), 41.6 ± 1.0.
